We go through 62 compounds from PubChem BioAssay AID624361 (Broad Institute, 2012).

Each structure is given as a SMILES string. Inconclusive results are not listed.

In the test the test system is LMP1-induced NF-kappaB luciferase reporter cells, luminescence. In words: inhibitors of LMP1-driven NF-kB reporter, dose response, cell-based, EBV LMP1, luciferase, dry powder, set 2 (AID 624361).
For the compound `CN(C)C(=O)c1cccc(-c2cccc(-c3nc(C(=O)NCc4ccccc4)cc4c3[C@@H](CCO)N([S@](=O)C(C)(C)C)C4)c2)c1`, the AC35 was 16.5 µM.
Turning to `COc1ccc(S(=O)(=O)N(C)C[C@H]2Oc3ncc(/C=C/c4ccccc4)cc3C(=O)N([C@H](C)CO)C[C@@H]2C)cc1`, the AC35 was 20.5 µM.
Regarding `Cc1noc(C)c1S(=O)(=O)Nc1ccc2c(c1)C(=O)N([C@@H](C)CO)C[C@H](C)[C@H](CN(C)Cc1ccc(C(F)(F)F)cc1)OCCCC[C@H](C)O2`, the AC35 was 33.4 µM.
The same measure for `O=C(C[C@@H]1CC[C@@H]2[C@H](COC[C@@H](O)CN2Cc2ccc3c(c2)OCO3)O1)Nc1ccc(-c2ccccc2)cc1`: 10 µM.
In the case of `COc1cccc(C#Cc2ccc([C@@H]3[C@@H](C#N)N(C(=O)c4ccccn4)[C@@H]3CO)cc2)c1` it was 18 µM; in that of `O=C(C[C@H]1C[C@H]2c3cc(NS(=O)(=O)c4ccc(F)cc4)ccc3O[C@H]2[C@H](CO)O1)NCc1ccc(Oc2ccccc2)cc1`, 10.3 µM.
The same measure for `Cc1noc(C)c1S(=O)(=O)Nc1ccc2c(c1)C(=O)N([C@H](C)CO)C[C@H](C)[C@H](CN(C)Cc1ccc(C(F)(F)F)cc1)OCCCC[C@@H](C)O2`: 33.8 µM.
For `Cc1noc(C)c1S(=O)(=O)Nc1ccc2c(c1)C(=O)N([C@@H](C)CO)C[C@H](C)[C@H](CN(C)Cc1ccc(C(F)(F)F)cc1)OCCCC[C@@H](C)O2`, the AC35 is 28.9 µM.
The same measure for `CC(C)(C)[S@@](=O)N1Cc2cc(C(=O)NCc3ccccc3F)nc(-c3cccc(-c4cccnc4)c3)c2[C@H]1CCO`: 29.5 µM; for `O=C(Nc1ccc(C(F)(F)F)cc1)Nc1ccc2c(c1)[C@@H]1C[C@H](CC(=O)N3CCc4ccccc4C3)O[C@@H](CO)[C@@H]1O2`: 9.85 µM; for `C[C@@H]1CN([C@@H](C)CO)S(=O)(=O)c2ccc(C#Cc3ccncc3)cc2O[C@H]1CN(C)C(=O)Nc1ccc2c(c1)OCO2`: 24 µM.
Turning to `N#C[C@H]1[C@H](c2ccc(C#Cc3ccccc3F)cc2)[C@H](CO)N1C(=O)c1cccnc1`, the AC35 was 20.8 µM.
The same measure for `CC(C)(C)[S@@](=O)N1Cc2cc(C(=O)NCc3ccccc3F)nc(-c3cccc(-c4ccncc4)c3)c2[C@H]1CCO`: 35.5 µM; for `O=C(C[C@@H]1CC[C@H]2[C@@H](COC[C@H](O)CN2Cc2ccc(Oc3ccccc3)cc2)O1)N1CCc2ccccc2C1`: 25.7 µM; for `COc1cccc(C#Cc2ccc([C@@H]3[C@H](C#N)N(C(=O)c4ccccn4)[C@H]3CO)cc2)c1`: 26.1 µM.
The same measure for `CN1C(=O)c2cc(NC(=O)c3ccc(C(F)(F)F)cc3)ccc2OC[C@@H]2O[C@@H](CC(=O)NC3Cc4ccccc4C3)CC[C@H]21`: 11.6 µM.
The same measure for `CCCNC(=O)c1cc2c(c(-c3cccc(-c4cccc(F)c4)c3)n1)[C@H](CCO)N([S@@](=O)C(C)(C)C)C2`: 30.6 µM; for `COc1cccc(S(=O)(=O)N(C)C[C@@H]2Oc3cc(C4=CCCCC4)ccc3S(=O)(=O)N([C@@H](C)CO)C[C@H]2C)c1`: 20.9 µM.
Take `COc1cccc(S(=O)(=O)N(C)C[C@@H]2Oc3cc(C4=CCCCC4)ccc3S(=O)(=O)N([C@@H](C)CO)C[C@@H]2C)c1`: the AC35 was 24 µM.
In the case of `O=C(C[C@@H]1C[C@H]2c3cc(NS(=O)(=O)c4ccc(F)cc4)ccc3O[C@H]2[C@@H](CO)O1)NCc1ccc(Oc2ccccc2)cc1` it was 14.7 µM; in that of `O=C(C[C@H]1C[C@H]2c3cc(NC(=O)c4ccc5c(c4)OCO5)ccc3O[C@H]2[C@H](CO)O1)NCc1ccc(Oc2ccccc2)cc1`, 20.7 µM.
In the case of `COc1ccc(S(=O)(=O)N(C)C[C@@H]2Oc3ncc(/C=C/c4ccccc4)cc3C(=O)N([C@@H](C)CO)C[C@H]2C)cc1` it was 28.6 µM; in that of `C[C@@H]1CN([C@@H](C)CO)C(=O)Cc2cc(NC(=O)Cc3ccccc3)ccc2O[C@H]1CN(C)Cc1ccc(C(F)(F)F)cc1`, 30 µM; in that of `C[C@H](CO)N1C[C@H](C)[C@H](CN(C)C(=O)NC2CCCCC2)Oc2cc(/C=C/c3ccccc3)ccc2S1(=O)=O`, 24 µM.
The same measure for `O=C(C[C@@H]1C[C@H]2c3cc(NC(=O)c4ccc5c(c4)OCO5)ccc3O[C@H]2[C@H](CO)O1)NC1CCCCC1`: 24 µM; for `CC(C)c1ccc(NC(=O)C[C@H]2CC[C@H]3[C@@H](COc4ccc(NC(=O)Nc5ccc(F)c(F)c5)cc4C(=O)N3C)O2)cc1`: 18.1 µM.
`O=C(C[C@@H]1CC[C@@H]2[C@H](COC[C@@H](O)CN2Cc2ccc(Oc3ccccc3)cc2)O1)N1CCc2ccccc2C1`: the AC35 was 17.8 µM.
In the case of `Cc1ccc(S(=O)(=O)N(C)C[C@H]2Oc3cc(C#Cc4ccncc4)ccc3S(=O)(=O)N([C@@H](C)CO)C[C@@H]2C)cc1` it was 10.2 µM; in that of `CN1C(=O)c2cc(NC(=O)Cc3cccs3)ccc2OC[C@@H]2O[C@H](CC(=O)NCc3ccc(-c4ccccc4)cc3)CC[C@H]21`, 29.4 µM; in that of `Cc1noc(C)c1S(=O)(=O)Nc1ccc2c(c1)C(=O)N([C@H](C)CO)C[C@@H](C)[C@H](CN(C)Cc1ccc(C(F)(F)F)cc1)OCCCC[C@H](C)O2`, 31.2 µM.
`CN(C)c1ccc2c(c1)[C@@H]1C[C@H](CC(=O)NCc3ccc(Oc4ccccc4)cc3)O[C@@H](CO)[C@@H]1O2`: the AC35 was 11.4 µM.
In the case of `CC(C)NC(=O)N1Cc2cc(C(=O)NC3Cc4ccccc4C3)nc(-c3cccc(-c4cccnc4)c3)c2[C@H]1CCO` it was 28.2 µM; in that of `COc1ccccc1C#Cc1ccc2c(c1)O[C@H](CN(C)Cc1cccnc1)[C@H](C)CN([C@H](C)CO)S2(=O)=O`, 20.3 µM.
In the case of `Cc1noc(C)c1S(=O)(=O)Nc1ccc2c(c1)C(=O)N([C@@H](C)CO)C[C@@H](C)[C@@H](CN(C)Cc1ccc(C(F)(F)F)cc1)OCCCC[C@H](C)O2` it was 32.8 µM; in that of `O=C(C[C@@H]1CC[C@@H]2[C@H](COC[C@H](O)CN2Cc2ccc3c(c2)OCO3)O1)Nc1ccc(-c2ccccc2)cc1`, 7.79 µM.
In the case of `C[C@@H]1CN([C@@H](C)CO)S(=O)(=O)c2ccc(C#C[C@@H](C)O)cc2O[C@H]1CN(C)Cc1ccc(-c2ccccc2)cc1` it was 21.5 µM.
On to `CC(C)NC(=O)N1Cc2cc(C(=O)NC3Cc4ccccc4C3)nc(-c3cccc(-c4cccnc4)c3)c2[C@@H]1CCO`, for which the AC35 is 23.7 µM.
The same measure for `Cc1noc(C)c1S(=O)(=O)Nc1ccc2c(c1)C(=O)N([C@@H](C)CO)C[C@H](C)[C@@H](CN(C)Cc1ccc(C(F)(F)F)cc1)OCCCC[C@@H](C)O2`: 21.5 µM; for `N#C[C@@H]1[C@H](c2ccc(C#Cc3ccccc3F)cc2)[C@@H](CO)N1C(=O)c1cccnc1`: 0.9 µM.
In the case of `COc1cccc(S(=O)(=O)N(C)C[C@H]2Oc3cc(C4=CCCCC4)ccc3S(=O)(=O)N([C@@H](C)CO)C[C@@H]2C)c1` it was 20.2 µM; in that of `C[C@@H]1CN([C@H](C)CO)S(=O)(=O)c2ccc(C#C[C@@H](C)O)cc2O[C@H]1CN(C)Cc1ccc(-c2ccccc2)cc1`, 22.4 µM; in that of `C[C@@H]1CN([C@H](C)CO)C(=O)Cc2cc(NC(=O)Cc3ccccc3)ccc2O[C@@H]1CN(C)Cc1ccc(C(F)(F)F)cc1`, 31.5 µM.
Take `O=C(C[C@H]1CC[C@H]2[C@@H](COC[C@@H](O)CN2Cc2ccc3c(c2)OCO3)O1)Nc1ccc(-c2ccccc2)cc1`: the AC35 was 16.1 µM.
`Cc1ccc(S(=O)(=O)N(C)C[C@H]2Oc3cc(C#Cc4ccncc4)ccc3S(=O)(=O)N([C@@H](C)CO)C[C@H]2C)cc1`: the AC35 was 11.5 µM.
In the case of `COc1ccccc1C#Cc1cnc2c(c1)C(=O)N([C@@H](C)CO)C[C@H](C)[C@@H](CN(C)C(=O)c1ccc3c(c1)OCO3)O2` it was 31.2 µM; in that of `Cc1noc(C)c1S(=O)(=O)Nc1ccc2c(c1)C(=O)N([C@@H](C)CO)C[C@@H](C)[C@H](CN(C)Cc1ccc(C(F)(F)F)cc1)OCCCC[C@@H](C)O2`, 31.7 µM; in that of `C[C@@H]1CN([C@H](C)CO)S(=O)(=O)c2ccc(/C=C/c3ccccc3)cc2O[C@H]1CN(C)C(=O)NC1CCCCC1`, 19.3 µM.
In the case of `CC(C)(C)[S@](=O)N1Cc2cc(C(=O)NCC(F)(F)F)nc(-c3cccc(-c4cccc(F)c4)c3)c2[C@@H]1CCO` it was 8.29 µM; in that of `N#C[C@H]1[C@H](c2ccc(C#Cc3ccccc3F)cc2)[C@@H](CO)N1C(=O)c1cccnc1`, 22.8 µM; in that of `O=C(C[C@@H]1C[C@@H]2c3cc(NS(=O)(=O)c4ccc(F)cc4)ccc3O[C@@H]2[C@@H](CO)O1)NCc1ccc(Oc2ccccc2)cc1`, 12.3 µM.
In the case of `O=C(C[C@H]1C[C@@H]2c3cc(NC(=O)c4ccc5c(c4)OCO5)ccc3O[C@@H]2[C@@H](CO)O1)NCc1ccc(Oc2ccccc2)cc1` it was 26.6 µM; in that of `COc1ccccc1C#Cc1ccc2c(c1)O[C@H](CN(C)Cc1cccnc1)[C@H](C)CN([C@@H](C)CO)S2(=O)=O`, 18.3 µM; in that of `Cc1noc(C)c1S(=O)(=O)Nc1ccc2c(c1)C(=O)N([C@@H](C)CO)C[C@@H](C)[C@H](CN(C)Cc1ccc(C(F)(F)F)cc1)OCCCC[C@H](C)O2`, 25.6 µM.
Take `C[C@H]1CN([C@@H](C)CO)S(=O)(=O)c2ccc(C#Cc3ccncc3)cc2O[C@H]1CN(C)C(=O)Nc1ccc2c(c1)OCO2`: the AC35 is 14.8 µM.
In the case of `C[C@H](CO)N1C[C@H](C)[C@@H](CN(C)S(=O)(=O)c2cccc(F)c2)Oc2ncc(C#CC3CCCCC3)cc2C1=O` it was 35.3 µM; in that of `Cc1cc(C(=O)Nc2ccc3c(c2)C(=O)N(C)[C@@H]2CC[C@@H](CC(=O)NCc4ccc(-c5ccccc5)cc4)O[C@H]2CO3)no1`, 4.76 µM; in that of `O=C(Nc1ccc(C(F)(F)F)cc1)Nc1ccc2c(c1)[C@H]1C[C@@H](CC(=O)N3CCc4ccccc4C3)O[C@@H](CO)[C@H]1O2`, 21.7 µM.
The same measure for `COc1cccc(S(=O)(=O)N(C)C[C@@H]2Oc3cc(C4=CCCCC4)ccc3S(=O)(=O)N([C@H](C)CO)C[C@H]2C)c1`: 23.4 µM; for `O=C(C[C@H]1C[C@@H]2c3cc(NS(=O)(=O)c4ccc(F)cc4)ccc3O[C@@H]2[C@@H](CO)O1)NCc1ccc(Oc2ccccc2)cc1`: 12.3 µM.
The same measure for `COc1cccc(S(=O)(=O)N(C)C[C@H]2Oc3cc(C4=CCCCC4)ccc3S(=O)(=O)N([C@H](C)CO)C[C@H]2C)c1`: 33 µM.
For `COc1ccc(-c2cccc(-c3nc(C(=O)NCC(F)(F)F)cc4c3[C@H](CCO)N([S@@](=O)C(C)(C)C)C4)c2)cc1`, the AC35 was 21.5 µM.
The same measure for `O=C(Nc1ccc(C(F)(F)F)cc1)Nc1ccc2c(c1)[C@H]1C[C@H](CC(=O)N3CCc4ccccc4C3)O[C@H](CO)[C@H]1O2`: 24.9 µM.
